In ChEMBL document CHEMBL4190314, “Quinoline hybrids and their antiplasmodial and antimalarial activities” (Eur J Med Chem, 2017):
pIC50: −log10 of the molar value. In brackets after ≈: the same amount, converted by molar mass. Each block holds one compound with its values, some of them ahead of it.

How the values were obtained:
Plasmodium falciparum [1] = assay: Antimalarial activity against chloroquine-resistant Plasmodium falciparum K1 infected in human type A+ erythrocytes after 48 hrs by [3H]-hypoxanthine incorporation assay; type: functional, organism-based
Plasmodium falciparum [2] = assay: Antimalarial activity against chloroquine-sensitive Plasmodium falciparum 3D7 infected in human type A+ erythrocytes after 48 hrs by [3H]-hypoxanthine incorporation assay; type: functional, organism-based
Plasmodium falciparum [3] = assay: Antimalarial activity against chloroquine-resistant Plasmodium falciparum W2 infected in human type A+ erythrocytes after 24 hrs by [3H]-hypoxanthine incorporation assay; type: functional, organism-based
Plasmodium falciparum [4] = assay: Antimalarial activity against Plasmodium falciparum 3D7 infected in human erythrocytes after 72 hrs by SYBR Green-1 staining based fluorescence assay; type: functional, organism-based; conditions: 3D7, 72 h
Plasmodium falciparum [5] = assay: Antimalarial activity against chloroquine-sensitive Plasmodium falciparum 3D7 infected in human erythrocytes after 72 hrs by SYBR Green-1 staining based fluorescence assay; type: functional, organism-based; conditions: 3D7, 72 h
Plasmodium falciparum [6] = assay: Antimalarial activity against synchronous culture of Plasmodium falciparum W2 ring stage infected in human erythrocytes after 48 hrs by flow cytometry; type: functional, organism-based; conditions: W2, 48 h
Plasmodium falciparum [7] = assay: Antimalarial activity against chloroquine-resistant Plasmodium falciparum W2 infected in human red blood cells assessed as reduction in parasitic LDH activity by Malstat reagent based spectrophotometric method; type: functional, organism-based
Plasmodium falciparum [8] = assay: Antimalarial activity against chloroquine-sensitive Plasmodium falciparum D6 infected in human red blood cells assessed as reduction in parasitic LDH activity by Malstat reagent based spectrophotometric method; type: functional, organism-based
Plasmodium falciparum [9] = assay: Antimalarial activity against […] Plasmodium falciparum D6; type: functional
Plasmodium falciparum [10] = assay: Antimalarial activity against multiple drug-resistant Plasmodium falciparum C235; type: functional
[11] = Permeability from apical to basolateral side in MDCK cells; type: ADME, cell-based, Canis lupus familiaris; conditions: dog, read-out: permeability
[12] = Drug uptake in FVB mouse brain at 5 mg/kg, iv administered as single dose by UPLC-MS/MS based equilibrium dialysis method; type: ADME, organism-based; conditions: in vivo
[13] = Elimination half life in FVB mouse plasma at 5 mg/kg, iv administered as single dose; type: ADME, organism-based; conditions: read-out: beta t1/2 (converted)
Plasmodium falciparum [14] = assay: microbe, parasite or virus in culture; conditions: D10, 24 h
Description: Antimalarial activity against chloroquine-sensitive Plasmodium falciparum D10 after 24 hrs by [G-3H]-hypoxanthine incorporation assay

Plasmodium falciparum [15] = assay: microbe, parasite or virus in culture; conditions: K1, 24 h
Description: Antimalarial activity against chloroquine-resistant Plasmodium falciparum K1 after 24 hrs by [G-3H]-hypoxanthine incorporation assay

pIC50 (Plasmodium falciparum [5]): 6.68 to 7.92
Structure (SMILES): C=C[C@H]1CN2CC[C@H]1C[C@H]2[C@H](OC(=O)[C@H](C)NC(=O)c1cn(CC)c2nc(C)ccc2c1=O)c1ccnc2ccc(OC)cc12

pIC50 (Plasmodium falciparum [4]): > 7.00
Structure (SMILES): C=C[C@H]1CN2CC[C@H]1C[C@H]2[C@H](OC(=O)[C@H](C)NC(=O)[C@H](Cc1ccccc1)NC(=O)CNC(=O)OCc1ccccc1)c1ccnc2ccc(OC)cc12

pIC50 (Plasmodium falciparum [6]): 7.23 to 7.96
Structure (SMILES): O=C(/C=C/c1cccc(F)c1)NCCCCNc1ccnc2cc(Cl)ccc12

pIC50 (Plasmodium falciparum [6]): 7.23 to 7.96
Structure (SMILES): COc1ccc(/C=C/C(=O)NCCCCNc2ccnc3cc(Cl)ccc23)cc1OC

pIC50 (Plasmodium falciparum [6]): 7.23 to 7.96
Structure (SMILES): CC(C)c1ccc(/C=C/C(=O)NCCCCNc2ccnc3cc(Cl)ccc23)cc1

pIC50 (Plasmodium falciparum [5]): 7.92
Structure (SMILES): C=C[C@H]1CN2CC[C@H]1C[C@H]2[C@H](OC(=O)[C@H](C)NC(=O)c1cn2c3c(c(N4CCN(C)CC4)c(F)cc3c1=O)OC[C@@H]2C)c1ccnc2ccc(OC)cc12

pIC50 (Plasmodium falciparum [6]): 7.23 to 7.96
Structure (SMILES): O=C(/C=C/c1cccc([N+](=O)[O-])c1)NCCCCNc1ccnc2cc(Cl)ccc12

pIC50 (Plasmodium falciparum [5]): 6.68 to 7.92
Structure (SMILES): C=C[C@H]1CN2CC[C@H]1C[C@H]2[C@H](OC(=O)CNC(=O)c1cn(CC)c2nc(C)ccc2c1=O)c1ccnc2ccc(OC)cc12

pIC50 (Plasmodium falciparum [6]): 7.23 to 7.96
Structure (SMILES): O=C(/C=C/c1ccc(F)cc1)NCCCCNc1ccnc2cc(Cl)ccc12

pIC50 (Plasmodium falciparum [4]): > 7.00
Structure (SMILES): C=C[C@H]1CN2CC[C@H]1C[C@H]2[C@H](OC(=O)[C@H](COCc1ccccc1)NC(=O)OC(C)(C)C)c1ccnc2ccc(OC)cc12

Second part, the compound before the results:

Structure (SMILES): O=C1OC(CN2CCN(c3ccccc3)CC2)CN1CCNc1ccnc2cc(Cl)ccc12 (centres undefined)
pIC50 (Plasmodium falciparum [1]): 6.37 to 7.21
pIC50 (Plasmodium falciparum [2]): 6.37 to 7.21

Structure (SMILES): C[C@@H]1CC[C@H]2[C@@H](C)C(=O)O[C@@H]3O[C@@]4(C)CC[C@@H]1[C@]32OO4 [ARTEMISININ]
pIC50 (Plasmodium falciparum [3]): 7.72

Structure (SMILES): C=C[C@H]1CN2CC[C@H]1C[C@H]2[C@H](OC(=O)CNC(=O)OC(C)(C)C)c1ccnc2ccc(OC)cc12
pIC50 (Plasmodium falciparum [4]): > 7.00

Structure (SMILES): Nc1ccc(/C=C/C(=O)NCCCCNc2ccnc3cc(Cl)ccc23)cc1
pIC50 (Plasmodium falciparum [6]): 7.23 to 7.96

Structure (SMILES): O=C1OC(CN2CCN(c3ccccc3F)CC2)CN1CCCCCCNc1ccnc2cc(Cl)ccc12 (centres undefined)
pIC50 (Plasmodium falciparum [1]): 6.37 to 7.21
pIC50 (Plasmodium falciparum [2]): 6.37 to 7.21

Structure (SMILES): O=C1OC(CN2CCN(c3ccccc3F)CC2)CN1CCCCNc1ccnc2cc(Cl)ccc12 (centres undefined)
pIC50 (Plasmodium falciparum [1]): 6.37 to 7.21
pIC50 (Plasmodium falciparum [2]): 6.37 to 7.21

Structure (SMILES): COc1ccc(OCc2cn(CCNc3ccnc4cc(Cl)ccc34)nn2)cc1
pIC50 (Plasmodium falciparum [7]): 5.95
pIC50 (Plasmodium falciparum [8]): 6.19

Structure (SMILES): CN(CCNCC(O)c1cc(C(F)(F)F)nc2c(C(F)(F)F)cccc12)CC(O)c1cc(C(F)(F)F)nc2c(C(F)(F)F)cccc12 (centres undefined)
IC90 (Plasmodium falciparum [9]): 0.022 to 0.08 µg/mL (≈ 0.032 to 0.116 µM)
IC90 (Plasmodium falciparum [10]): 0.022 to 0.08 µg/mL (≈ 0.032 to 0.116 µM)
Papp A→B [11]: 0.14 ×10⁻⁶ cm/s
Drug uptake [12]: 97 ng/g
half-life [13]: 13 h

Structure (SMILES): O=C(/C=C/c1ccc(Br)cc1)NCCCCNc1ccnc2cc(Cl)ccc12
pIC50 (Plasmodium falciparum [6]): 7.23 to 7.96

Structure (SMILES): O[C@@H](c1cc(C(F)(F)F)nc2c(C(F)(F)F)cccc12)[C@H]1CCCCN1 [(S,R)-MEFLOQUINE]
Drug uptake [12]: 1600 ng/g
half-life [13]: 23 h
pIC50 (Plasmodium falciparum [14]): 7.05
pIC50 (Plasmodium falciparum [15]): 6.52

Structure (SMILES): O=C1OC(CN2CCN(c3ccccc3F)CC2)CN1CCCNc1ccnc2cc(Cl)ccc12 (centres undefined)
pIC50 (Plasmodium falciparum [1]): 6.37 to 7.21
pIC50 (Plasmodium falciparum [2]): 6.37 to 7.21

Structure (SMILES): CN(C)c1ccc(/C=C/C(=O)NCCCCNc2ccnc3cc(Cl)ccc23)cc1
pIC50 (Plasmodium falciparum [6]): 7.23 to 7.96

Structure (SMILES): C=C[C@H]1CN2CC[C@H]1C[C@H]2[C@H](O)c1ccnc2ccc(OC)cc12 [QUININE]
pIC50 (Plasmodium falciparum [4]): 7.74

Structure (SMILES): C=C[C@H]1CN2CC[C@H]1C[C@H]2[C@H](OC(=O)[C@H](Cc1ccccc1)NC(=O)c1cn2c3c(c(N4CCN(C)CC4)c(F)cc3c1=O)OC[C@@H]2C)c1ccnc2ccc(OC)cc12
pIC50 (Plasmodium falciparum [5]): 6.68 to 7.92

Structure (SMILES): O=C(/C=C/c1ccc([N+](=O)[O-])cc1)NCCCCNc1ccnc2cc(Cl)ccc12
pIC50 (Plasmodium falciparum [6]): 7.23 to 7.96

Structure (SMILES): O=C(/C=C/c1ccccc1[N+](=O)[O-])NCCCCNc1ccnc2cc(Cl)ccc12
pIC50 (Plasmodium falciparum [6]): 7.23 to 7.96

Structure (SMILES): C=C[C@H]1CN2CC[C@H]1C[C@H]2[C@H](OC(=O)CNC(=O)[C@@H](NC(=O)OCc1ccccc1)[C@@H](C)CC)c1ccnc2ccc(OC)cc12
pIC50 (Plasmodium falciparum [4]): > 7.00
